Measured values published in US20240270751A1, “Pyrazolopyridinone Compounds” (BeiGene Ltd., priority 2021, published 2024).
pIC50: −log10 of the molar value.

Columns and labels:
[1] = biological target: DGKζ (Homo sapiens (Human), UniProt Q13574); experiment: Biochemical DGK IC50 assay, DGKζ ADP-Glo assay; conditions: 0.5 nM enzyme, 140 μM ATP, 80 μM DAG; read-out: DGKζ ADP-Glo assay IC50
Summary of the method: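 ADP formation measured by ADP-Glo luminescence, with test compounds at final 1.55–10000 nM or 23.3–150000 nM. Enzyme: purified full-length human DGKζ from Sf9 insect cells; substrate: DAG/PS micelles in 25 mM HEPES pH 7.0, 0.5 mM EDTA, octyl glucoside.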

[2] = biological target: DGKα (Homo sapiens (Human), UniProt P23743); experiment: Biochemical DGK IC50 assay, DGKα ADP-Glo assay; conditions: 7.5 nM enzyme, 140 μM ATP, 80 μM DAG
Summary of the method: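 Compounds at final 1.55˜10000 nM or 23.3˜150000 nM were tested against full-length DGKα. Substrate was lipid micelles of DAG and PS resuspended in 25 mM HEPES pH 7.0 with 0.5 mM EDTA and 160 mM octyl β-D-glucopyranoside. ADP formed was detected by ADP-Glo.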

DGKα, sequence (P23743 whole entry): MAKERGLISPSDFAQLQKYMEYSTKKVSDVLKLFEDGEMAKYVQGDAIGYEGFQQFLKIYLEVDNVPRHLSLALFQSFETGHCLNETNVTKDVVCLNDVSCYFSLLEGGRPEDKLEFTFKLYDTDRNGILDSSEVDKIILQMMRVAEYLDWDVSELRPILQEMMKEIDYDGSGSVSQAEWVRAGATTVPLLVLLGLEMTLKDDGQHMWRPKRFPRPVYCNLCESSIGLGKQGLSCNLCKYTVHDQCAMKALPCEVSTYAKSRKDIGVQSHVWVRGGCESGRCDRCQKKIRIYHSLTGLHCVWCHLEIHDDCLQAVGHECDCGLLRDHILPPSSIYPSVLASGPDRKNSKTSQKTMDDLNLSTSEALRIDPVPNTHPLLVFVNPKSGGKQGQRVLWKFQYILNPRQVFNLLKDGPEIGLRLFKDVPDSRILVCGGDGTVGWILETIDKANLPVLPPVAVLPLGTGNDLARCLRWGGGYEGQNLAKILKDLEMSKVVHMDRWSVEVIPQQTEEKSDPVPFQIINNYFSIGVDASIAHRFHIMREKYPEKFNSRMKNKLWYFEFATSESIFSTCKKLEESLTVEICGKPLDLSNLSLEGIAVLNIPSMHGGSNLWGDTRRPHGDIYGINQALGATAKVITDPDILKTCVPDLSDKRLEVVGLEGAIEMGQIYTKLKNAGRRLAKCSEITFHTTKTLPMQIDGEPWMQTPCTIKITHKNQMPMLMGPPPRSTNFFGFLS
DGKζ, sequence (Q13574 other isoform, or with tags, fused parts or gaps): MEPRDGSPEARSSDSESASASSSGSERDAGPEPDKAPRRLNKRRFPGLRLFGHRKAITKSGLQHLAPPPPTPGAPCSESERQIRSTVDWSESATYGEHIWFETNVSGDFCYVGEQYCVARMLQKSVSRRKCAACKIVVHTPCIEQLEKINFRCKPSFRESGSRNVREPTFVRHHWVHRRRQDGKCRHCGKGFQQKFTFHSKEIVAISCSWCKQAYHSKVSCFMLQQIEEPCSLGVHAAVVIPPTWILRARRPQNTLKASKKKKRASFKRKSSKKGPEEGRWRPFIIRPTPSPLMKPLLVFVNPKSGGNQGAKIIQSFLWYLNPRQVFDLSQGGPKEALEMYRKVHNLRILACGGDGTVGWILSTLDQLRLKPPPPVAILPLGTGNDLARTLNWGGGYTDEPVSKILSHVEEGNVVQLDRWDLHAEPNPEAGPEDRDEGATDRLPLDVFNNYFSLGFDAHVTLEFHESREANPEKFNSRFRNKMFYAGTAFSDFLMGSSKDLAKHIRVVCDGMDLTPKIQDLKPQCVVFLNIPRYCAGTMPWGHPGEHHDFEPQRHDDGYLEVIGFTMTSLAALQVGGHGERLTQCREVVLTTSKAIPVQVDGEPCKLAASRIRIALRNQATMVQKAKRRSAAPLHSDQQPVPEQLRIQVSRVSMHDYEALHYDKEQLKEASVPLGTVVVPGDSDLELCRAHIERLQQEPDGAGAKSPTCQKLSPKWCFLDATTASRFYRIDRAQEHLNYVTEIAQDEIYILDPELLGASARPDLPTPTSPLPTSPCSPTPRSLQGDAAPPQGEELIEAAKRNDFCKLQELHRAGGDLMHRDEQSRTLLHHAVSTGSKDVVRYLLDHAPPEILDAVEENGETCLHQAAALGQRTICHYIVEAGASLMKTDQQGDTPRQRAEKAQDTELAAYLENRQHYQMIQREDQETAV

pIC50 [1]	pIC50 [2]	SMILES
6.78	6.56	CC[C@H]1CN(C(C)c2ccc(C(F)F)nc2)[C@H](CC)CN1c1cc(=O)n(C)c2cn(CC#N)nc12 (single isomer, unassigned) [Compound A351a]
5.33	6.10	CC[C@H]1CN(C(C)c2ccc(C)nn2)[C@H](CC)CN1c1cc(=O)n(C)c2cn(CC#N)nc12 (stereo partly shown) [Compound A365]
7.14	5.05	COCC[C@H]1CN(C(C)c2ccc3nccnc3c2)[C@H](C)CN1c1cc(=O)n(C)c2cn(CC#N)nc12 (stereo partly drawn) [Compound A164, 2-(7-((2S,5R)-2-(2-methoxyethyl)-5-methyl-4-(1-(quinoxalin-6-yl)ethyl)piperazin-1-yl)-4-methyl-5-oxo-4,5-dihydro-2H-pyrazolo[4,3-b]pyridin-2-yl)acetonitrile]
5.80	6.20	CC[C@H]1CN(C(C)c2cnc(C)cn2)[C@H](CC)CN1c1cc(=O)n(C)c2cn(CC#N)nc12 (stereo partly shown) [Compound A356]
6.75	5.67	CC[C@H]1CN(C(C)c2cnc(C)c(C)n2)[C@H](CC)CN1c1cc(=O)n(C)c2cn(CC#N)nc12 (single isomer, unassigned) [Compound A355b]
6.72	7.47	CC[C@H]1CN(C(C)c2ncc(F)cc2F)[C@H](CC)CN1c1cc(=O)n(C)c2cn(CC#N)nc12 (stereo partly shown) [Compound A148]
< 5.00	< 5.00	CC[C@H]1CN(C(C)c2c(C)cnn2CC)[C@H](CC)CN1c1cc(=O)n(C)c2cn(CC#N)nc12 (single isomer, unassigned) [Compound A227a]
7.23	< 5.00	CCCn1c(C(C)N2C[C@H](CC)N(c3cc(=O)n(C)c4cn(CC#N)nc34)C[C@H]2CC)nc2ccccc21 (stereo partly drawn) [Compound A192, 2-(7-((2S,5R)-2,5-diethyl-4-(1-(1-propyl-1H-benzo[d]imidazol-2-yl)ethyl)piperazin-1-yl)-4-methyl-5-oxo-4,5-dihydro-2H-pyrazolo[4,3-b]pyridin-2-yl)acetonitrile]
7.52	6.72	CC[C@H]1CN(C(C)c2ccc3c(n2)OCCO3)[C@H](CC)CN1c1cc(=O)n(C)c2cn(CC#N)nc12 (stereo partly drawn) [Compound A159, 2-(7-((2S,5R)-4-(1-(2,3-dihydro-[1,4]dioxino[2,3-b]pyridin-6-yl)ethyl)-2,5-diethylpiperazin-1-yl)-4-methyl-5-oxo-4,5-dihydro-2H-pyrazolo[4,3-b]pyridin-2-yl)acetonitrile]
5.44	4.21	CC(c1ccc2nc(C(F)(F)F)cnc2c1)N1C[C@H](C)N(c2cc(=O)n(C)c3cn(CC#N)nc23)C[C@H]1C (stereo partly drawn) [Compound A315, 2-(7-((2S,5R)-2,5-dimethyl-4-(1-(2-(trifluoromethyl)quinoxalin-6-yl)ethyl)piperazin-1-yl)-4-methyl-5-oxo-4,5-dihydro-2H-pyrazolo[4,3-b]pyridin-2-yl)acetonitrile]
4.74	3.96	CC(c1ccc2nccnc2c1)N1C[C@H](C)N(c2cc(=O)n(C)c3cn(CC4CC4)nc23)C[C@H]1C (stereo partly shown) [Compound A10]
5.42	6.85	CC[C@H]1CN(C(C)c2ccc(Cl)cn2)[C@H](CC)CN1c1cc(=O)n(C)c2cn(CC#N)nc12 (single isomer, unassigned) [Compound A360a]
6.00	< 5.00	Cc1nc2cc(C(C)N3C[C@H](C)N(c4cc(=O)n(C)c5cn(CC#N)nc45)C[C@H]3C)ccc2o1 (stereo partly shown) [Compound A41]
5.22	< 5.00	CC(c1ccc2nccnc2c1)N1CCN(c2cc(=O)n(C)c3cn(CC#N)nc23)CC1CO (stereo not shown) [Compound A184]
6.38	6.16	CC[C@H]1CN(C(C)c2ccc(C(C)(C)C#N)cn2)[C@H](CC)CN1c1cc(=O)n(C)c2cn(CC#N)nc12 (stereo partly shown) [Compound A386]
5.96	6.53	CC[C@@H]1CN(c2cc(=O)n(C)c3cn(CC#N)nc23)[C@@H](CC)CN1C(=O)c1ccc(C2CC2)cc1 [Compound A369]

pIC50 [1]	pIC50 [2]	SMILES
6.59	5.05	CC[C@H]1CN(C(C)c2cccnc2OC)[C@H](CC)CN1c1cc(=O)n(C)c2cn(CC#N)nc12 (stereo partly shown) [Compound A105]
< 5.00	< 5.00	C[C@H]1CN([C@@H](C)c2ccc3c(c2)OC(C)(C)CO3)[C@@H](C)CN1c1cc(=O)n(C)c2cn(CC#N)nc12 [Compound A46a]
5.52	5.89	CC[C@@H]1CN(c2cc(=O)n(C)c3cn(CC#N)nc23)[C@@H](C)CN1C(C)c1ccc(C(F)(F)F)cc1F (single isomer, unassigned) [Compound A202b]
6.62	6.39	CC[C@H]1CN(C(C)c2ccc(C(F)(F)F)cc2)[C@H](CC)CN1c1cc(=O)n(C)c2cn(CC#N)nc12 (single isomer, unassigned) [Compound A103a]
6.59	7.25	CC[C@H]1CN(C(C)c2ccc(C)cc2)[C@H](CC)CN1c1cc(=O)n(C)c2cn(CC#N)nc12 (stereo partly drawn) [Compound A127, 2-(7-((2S,5R)-2,5-diethyl-4-(1-(p-tolyl)ethyl)piperazin-1-yl)-4-methyl-5-oxo-4,5-dihydro-2H-pyrazolo[4,3-b]pyridin-2-yl)acetonitrile]
5.36	< 5.00	CC[C@H]1CN(C(C)c2ccc(F)cc2C(F)(F)F)[C@H](CC)CN1c1cc(=O)n(C)c2c[nH]nc12 (single isomer, unassigned) [Compound A275b]
6.95	< 5.00	CC[C@H]1CN(C(C)c2ccc3nccnc3c2)[C@H](CC)CN1c1cc(=O)n(CC(F)F)c2cn(CC#N)nc12 (single isomer, unassigned) [Compound A139a]
5.31	5.38	CC[C@H]1CN(C(C)c2ccc(F)cc2C#N)[C@H](CC)CN1c1cc(=O)n(C)c2cn(CC#N)nc12 (single isomer, unassigned) [Compound A224b]
< 5.00	6.44	CC[C@@H]1CN(c2cc(=O)n(C)c3cn(CC#N)nc23)[C@@H](CC)CN1C(=O)c1ccc(C)cn1 [Compound A370]
6.63	< 5.00	CC[C@H]1CN(C(C)c2nc3cc(C(F)(F)F)ccc3n2CC)[C@H](CC)CN1c1cc(=O)n(C)c2cn(CC#N)nc12 (single isomer, unassigned) [Compound A203b]
7.01	6.40	CC[C@H]1CN(C(C)c2ccc(C(F)(F)F)nc2)[C@H](CC)CN1c1cc(=O)n(C)c2cn(CC#N)nc12 (single isomer, unassigned) [Compound A135a]
6.08	8.42	CC[C@H]1CN(C(C)c2ccc(F)cn2)[C@H](CC)CN1c1cc(=O)n(C)c2cn(CC#N)nc12 (stereo partly shown) [Compound A74]
5.27	6.85	CC(c1ccccc1)N1C[C@H](C)N(c2cc(=O)n(C)c3cn(CC#N)nc23)C[C@H]1C (stereo partly shown) [Compound A37]
7.24	6.92	CC#CCn1cc2c(n1)c(N1C[C@@H](CC)N(C(C)c3ccc4nccnc4c3)C[C@@H]1CC)cc(=O)n2C (stereo partly drawn) [Compound A23, 2-(but-2-yn-1-yl)-7-((2S,5R)-2,5-diethyl-4-(1-(quinoxalin-6-yl)ethyl)piperazin-1-yl)-4-methyl-2,4-dihydro-5H-pyrazolo[4,3-b]pyridin-5-one]
5.60	6.04	CC[C@H]1CN(C(C)c2ncc(OC(F)(F)F)cc2F)[C@H](CC)CN1c1cc(=O)n(C)c2cn(CC#N)nc12 (single isomer, unassigned) [Compound A362a]
5.65	6.72	CC[C@H]1CN(C2CCc3ccccc32)[C@H](CC)CN1c1cc(=O)n(C)c2cn(CC#N)nc12 (single isomer, unassigned) [Compound A149b]

SMILES	pIC50 [1]	pIC50 [2]
Cc1cnc2cc([C@H](C)N3C[C@H](C)N(c4cc(=O)n(C)c5cn(CC#N)nc45)C[C@H]3C)ccc2n1 (single isomer, unassigned) [Compound A269b, 2-(7-((2S,5R)-2,5-dimethyl-4-((S)-1-(2-methylquinoxalin-6-yl)ethyl)piperazin-1-yl)-4-methyl-5-oxo-4,5-dihydro-2H-pyrazolo[4,3-b]pyridin-2-yl)acetonitrile, or 2-(7-((2S,5R)-2,5-dimethyl-4-((R)-1-(2-methylquinoxalin-6-yl)ethyl)piperazin-1-yl)-4-methyl-5-oxo-4,5-dihydro-2H-pyrazolo[4,3-b]pyridin-2-yl)acetonitrile]	5.16	< 5.00
C[C@@H]1CN(c2cc(=O)n(C)c3cn(CC#N)nc23)[C@@H](C)CN1[C@@H](C)c1ccc2nccnc2c1 [Compound A2a, 2-(7-((2S,5R)-2,5-dimethyl-4-((S)-1-(quinoxalin-6-yl)ethyl)piperazin-1-yl)-4-methyl-5-oxo-4,5-dihydro-2H-pyrazolo[4,3-b]pyridin-2-yl)acetonitrile]	7.28	5.32
C[C@@H]1CN(c2cc(=O)n(C)c3c(C(F)(F)F)nn(CC#N)c23)[C@@H](C)CN1[C@@H](C)c1ccc2nccnc2c1 (single isomer, unassigned) [Compound A244, 2-(7-((2S,5R)-2,5-dimethyl-4-((S)-1-(quinoxalin-6-yl)ethyl)piperazin-1-yl)-4-methyl-5-oxo-3-(trifluoromethyl)-4,5-dihydro-1H-pyrazolo[4,3-b]pyridin-1-yl)acetonitrile or 2-(7-((2S,5R)-2,5-dimethyl-4-((R)-1-(quinoxalin-6-yl)ethyl)piperazin-1-yl)-4-methyl-5-oxo-3-(trifluoromethyl)-4,5-dihydro-1H-pyrazolo[4,3-b]pyridin-1-yl)acetonitrile]	< 5.00	< 5.00
